Data published in patent US20100099757A1, “DISULFIRAM DOSES AND TREATMENT REGIMEN SUITABLE FOR TREATMENT OF ANGIOGENESIS-DEPENDENT DISORDERS” (priority 2006, published 2010).

Legend:
aldehyde dehydrogenase = target: T1, aldehyde dehydrogenase (Rattus norvegicus, UniProt P11884); settings: cited from earlier work
T1 sequence (P11884 20-519): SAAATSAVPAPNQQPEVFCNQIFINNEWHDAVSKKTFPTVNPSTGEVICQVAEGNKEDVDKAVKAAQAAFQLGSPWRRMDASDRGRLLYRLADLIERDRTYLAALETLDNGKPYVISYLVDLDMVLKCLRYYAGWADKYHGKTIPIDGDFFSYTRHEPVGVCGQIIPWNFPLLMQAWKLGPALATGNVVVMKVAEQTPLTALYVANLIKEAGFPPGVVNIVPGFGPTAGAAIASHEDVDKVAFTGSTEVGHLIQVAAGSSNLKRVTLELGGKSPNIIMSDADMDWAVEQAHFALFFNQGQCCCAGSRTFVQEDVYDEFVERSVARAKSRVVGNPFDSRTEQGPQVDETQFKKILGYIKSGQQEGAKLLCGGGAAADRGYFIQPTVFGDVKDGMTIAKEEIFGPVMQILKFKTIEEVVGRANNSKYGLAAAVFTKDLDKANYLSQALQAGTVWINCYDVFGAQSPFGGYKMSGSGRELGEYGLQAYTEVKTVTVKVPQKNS

[1] = tested on: non-small cell lung cancer; experiment: Phase II trial of disulfuram with Cisplatin/Vinorelbine in non-small cell lung cancer; assay type: in vivo; settings: 120 mg daily (40 mg three times a day) for eighteen weeks, human patients
Excerpt: A phase II, multicenter, randomized, double blind study was designed to assess the dose response of humans suffering from lung cancer to Disulfuram or a disulfuram-Cisplatin/Vinorelbine combination. Patients with histogically or cytologically documented advanced (i.e. stage Mb or stage IV), or recurrent non-small cell lung cancer, previously untreated with systemic anti-tumor therapy were selected for the study. The patients were randomly assigned to the standard first line hospital chemotherapy treatment (Cisplatin/Vinorelbine) with placebo or Cisplatin/Vinorelbine in combination with disulfuram. Treatment was provided in cycles of 21-day time periods until progression or for a maximum of 6 cycles.
The patients were further assessed for overall survival, time to progression and duration of response.
Standard administration regimens for cisplatin and Vinorelbine were followed.
Placebo capsules included the lactose carrier but were devoid of disulfuram. Each patient received the disulfuram or placebo from the treating physician.

[2] = cited from earlier work
[3] = oral DSF, cited from earlier work
Lewis lung carcinoma = settings: oral administration to mice; cited from earlier work
C6 glioma tumor = settings: oral administration to mice; cited from earlier work
angiogenesis = settings: oral administration, CD1 nude mice; cited from earlier work
[4] = tested on: bovine capillary endothelial (BCE) cells; settings: cited from earlier work
[5] = target: Cu/Zn Suproxide dismutase (SOD-1) (Homo sapiens, UniProt P00441); settings: both in vivo and in vitro; cited from earlier work
Sequence of Cu/Zn Suproxide dismutase (SOD-1) (P00441 whole entry, species assumed): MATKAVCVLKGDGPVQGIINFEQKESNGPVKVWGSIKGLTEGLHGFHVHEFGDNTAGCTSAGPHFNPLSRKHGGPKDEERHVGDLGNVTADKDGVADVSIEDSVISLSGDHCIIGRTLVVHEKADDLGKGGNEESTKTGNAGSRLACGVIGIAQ

[6] = tested on: advanced stage IV metastatic melanoma; settings: daily 250-500 mg disulfuram and 50 mg zinc gluconate; three months from onset of therapy; cited from earlier work
cancer = settings: cited from earlier work
[7] = tested on: acetaldehyde dehydrogenase; settings: cited from earlier work
[8] = tested on: human malignant cell lines; settings: combination of disulfuram and metal ions, in vitro; cited from earlier work
[9] = cultured BCE cells, prevented by copper and antioxidants

CCN(CC)C(=O)SC [Me-DTC, diethylthiomethylcarbamate]
inhibition of aldehyde dehydrogenase (aldehyde dehydrogenase): most powerful irreversible inhibitor

CCN(CC)C(=S)SSC(=S)N(CC)CC [disulfuram, bis(diethylthiocarbamoyl) disulfide]
time to progression and survival of non-small cell lung cancer [1]: extending time to progression and survival
soluble in alcohol ([2]; alcohol): about 3.8 g in 100 ml
soluble in water ([2]; water): about 20 mg in 100 ml
T1/2 ([3]; elimination kinetics): 7.3 h
average time to reach maximum plasma concentration [3]: 8 to 10 h
reduction in the metastatic load of Lewis lung carcinoma (Lewis lung carcinoma): 10-19 fold
C6 glioma tumor development (C6 glioma tumor): significant inhibition
angiogenesis (angiogenesis): inhibited angiogenesis
level of glutathione ([4]; BCE cells): reduced the level of glutathione
DNA synthesis [4, 9]: inhibition of DNA synthesis
apoptosis [4, 9]: induction of apoptosis
activity of Cu/Zn Suproxide dismutase (SOD-1) [5]: inhibits activity
reduction in tumor size [6]: > 50%
response rate, time to progression, or median survival (cancer; about 2000 mg/subject disulfuram with 100 mg/m2 cisplatin once every 3-4 weeks, versus cisplatin alone): no statistically-significant difference
gastrointestinal and ototoxicities (cancer; about 2000 mg/subject disulfuram with 100 mg/m2 cisplatin): enhanced
concentration of acetaldehyde in the blood versus same amount of alcohol alone ([7]; after alcohol intake under the influence of disulfuram): 5 to 10 times higher
onset of effect ([7]; single dose unit): 1 to 2 h
time of peak effect ([7]; single dose unit): about 12 hours
time effect is sustained ([7]; single dose unit, depends on liver enzymes): 12 to 72 h
duration of effects of a single dose in some individuals ([7]; single dose, some individuals): up to 2 weeks
proliferation of human malignant cell lines [8]: inhibited the proliferation
